Values quoted from earlier work in patent US6472228B2, “Composition and methods for synthesis of novel tracers for detecting amphetamine and methamphetamine in samples” (Lifepoint, Inc., priority 2000, dated 2002).

Conditions: GC/MASS

Q: For `CN[C@@H](C)Cc1ccccc1` [methamphetamine], which “detectable in saliva samples after the last dose” value is on record?
A: up to 2 days
